Results published in US20200190062A1, “HETEROCYCLIC COMPOUND AND PHARMACEUTICAL COMPOSITION COMPRISING SAME” (BEYONDBIO INC., priority 2015, published 2020).
Structures can show the parent of a compound that is named as a salt.

Key:
[1] = tested on: human colon carcinoma cell line HCT116; test: Cell cycle change by flow cytometry, cancer cells; assay type: cell-based; conditions: 24 hrs
Description: (§1) A human colon carcinoma cell line HCT116 and a human normal lung cell line MRC5 were cultured in DMEM medium containing 10% FBS. Each cultured cells were harvested, placed in 6 well plate at 1×10^6 cells/well, and cultured at 5% CO2 and 37° C. for 16 hrs. The compounds of the above Examples at 75 nM and 150 nM in DMEM containing 5% FBS were added to the cells in each well, and after 24 hrs a change in the cell cycle was analyzed using a flow cytometry. Media of treatment groups and a control group were removed, trypsin was added to isolate cells from the plates and the cells were centrifuged at 1000 g for 3 min. The isolated cells were washed with a cold phosphate buffer (PBS) two times. Afterwards, 1 ml of 70% ethanol was added to the cells and the cells were maintained at 4° C. for 30 min or more to fix the cells. The fixed cells were centrifuged at 1000 g for 3 min to remove ethanol, and washed with phosphate buffer (PBS) two times to remove ethanol completely. The washed cells were suspended in 250 ul of PBS, 6.25 ul of 10 mg/ml RNaseA was added to the suspension and reacted for 15 min at room temperature to degrade all RNA. 12.5 ul of 1 mg/ml propidium iodide (PI, sigma) was added to stain intracellular DNA. The cell cycles of 10,000 stained cells were measured using FACS calibur (Becton-Dickinson, USA) and cell numbers present in G1, S and G2/M phases were calculated as percentage using a cell cycle analysis program. Tables 3 and 4 show the results of cell cycle analysis for the compound obtained in Example 1 in cancer cells and normal cells, respectively.

[2] = tested on: human normal lung cell line MRC5; test: Cell cycle change by flow cytometry, normal cells; assay type: cell-based; conditions: 24 hrs
Description: as §1

[3] = tested on: Human colon carcinoma HCT116 cell line; test: Tumor growth inhibition in an animal model (HCT116 xenograft); assay type: in vivo, Balb/c nude mouse; conditions: oral daily for 12 days; for tumor growth inhibition: vs vehicle control
Description: Tumor size was measured twice a week using Caliper. […] A vehicle control was 20% propylene glycol (PG) and a positive control was Xeloda at 100 mg/kg.

Compound: Nc1nccc(-c2ccc(O)c(-c3ccnc(N)n3)n2)n1 [Example 1, 2,6-bis(2-aminopyrimidin-4-yl)pyridin-3-ol]
- G1 (cell numbers as percentage) ([1]; HCT116, 75 nM): 22.3%
- G2/M (cell numbers as percentage) ([1]; HCT116, 75 nM): 51.5%
- Polyploidy (cell numbers as percentage) ([1]; HCT116, 75 nM): 16.3%
- S (cell numbers as percentage) ([1]; HCT116, 75 nM): 5.3%
- Sub-G1 (cell numbers as percentage) ([1]; HCT116, 75 nM): 4.9%
- G1 (cell numbers as percentage) ([1]; HCT116, 150 nM): 4.3%
- G2/M (cell numbers as percentage) ([1]; HCT116, 150 nM): 54.4%
- Polyploidy (cell numbers as percentage) ([1]; HCT116, 150 nM): 23.3%
- S (cell numbers as percentage) ([1]; HCT116, 150 nM): 2.6%
- Sub-G1 (cell numbers as percentage) ([1]; HCT116, 150 nM): 5.8%
- G1 (cell numbers as percentage) ([2]; MRC5, 75 nM): 50.7%
- G2/M (cell numbers as percentage) ([2]; MRC5, 75 nM): 22.8%
- Polyploidy (cell numbers as percentage) ([2]; MRC5, 75 nM): 8.8%
- S (cell numbers as percentage) ([2]; MRC5, 75 nM): 9.1%
- Sub-G1 (cell numbers as percentage) ([2]; MRC5, 75 nM): 8.8%
- G1 (cell numbers as percentage) ([2]; MRC5, 150 nM): 44.0%
- G2/M (cell numbers as percentage) ([2]; MRC5, 150 nM): 26.6%
- Polyploidy (cell numbers as percentage) ([2]; MRC5, 150 nM): 10.2%
- S (cell numbers as percentage) ([2]; MRC5, 150 nM): 6.8%
- Sub-G1 (cell numbers as percentage) ([2]; MRC5, 150 nM): 12.8%

Compound: Nc1nccc(-c2ccc(O)c(-c3ccnc(N)n3)n2)n1 [Example 61, 2,6-bis(2-aminopyrimidin-4-yl)pyridin-3-ol 3hydrochloride]
- Tumor size ([3]; 1 mpk): 1082.4 ± 994.6 mm^3
- tumor growth inhibition ([3]; 1 mpk): 41.3%
- Tumor size ([3]; 3 mpk): 773.7 ± 253.9 mm^3
- tumor growth inhibition ([3]; 3 mpk): 58.0%
- Tumor size ([3]; 10 mpk): 647.4 ± 462.1 mm^3
- tumor growth inhibition ([3]; 10 mpk): 64.9%
- Tumor size ([3]; 30 mpk): 403.4 ± 224.1 mm^3
- tumor growth inhibition ([3]; 30 mpk): 78.1%
